Data set [1] deals with SK-N-BE(2) cells. Nature of the data set: Live cell confocal microscopy of lipid droplets (NBD-cholesterol, nile red). The class given is cell-based, human. The following applies: CBD 20 μM, 24 hrs. The source says: Thus, the present inventors found multiple lines of evidence consistent with activation of cholesterol esterification in the CBD response. To further support the claim that CBD elicits cholesterol storage, the present inventors used live cell confocal microscopy of SK-N-BE(2) cells stained with both fluorescent cholesterol (22-NBD-Cholesterol) and the lipid droplet dye nile red (FIG. 4E) to quantify the number and size of lipid droplets. […] Altogether, these combined experiments highlight that the CBD response in cells includes activation of cholesterol esterification and storage.
(§1) SK-N-BE(2) cells were seeded into fibronectin coated glass bottom 96 well plates (Matriplate) at a cell density of 40,000 cells/well using low background imaging media (FluoroBrite DMEM with all supplements described, above). At the time of seeding, nile red (ThermoFisher) was added at a final concentration of 100 ng/mL and NBD-cholesterol (ThermoFisher) was added at a final concentration of 10 μg/mL. […] Lipid droplets and their sizes were detected and quantified using the ImageJ Find Particles Function, and data was subsequently processed using Microsoft Excel. Error depicted represents the standard deviation calculated from three biological replicates. […]

Another data set has as its system HaCaT cells. The experiment in a line: Live cell microscopy apoptosis assay (caspase 3/7 dye). The following applies: increasing 25-hydroxy cholesterol, constant CBD. On the procedure: (§2) To accurately measure cellular apoptosis over time, the present inventors performed live cell microscopy experiments with cells loaded with both DNA and caspase 3/7 dyes, which enables continuous and precise quantification of apoptosis at the single cell level.
(§3) Cell viability for SK-N-BE(2) cells was conducted using a fluorometric cell viability assay using Resazurin (PromoKine) according to the manufacturer's instructions. […] Dyes were added at the time of seeding, 18-24 hours prior to performing experiments.
(§4) Experiments were performed using an ImageXpress MicroXL microscope and a 10× objective, where images were acquired for each well at the indicated time-points using DAPI and FITC filter sets. […] Percent apoptotic cells was calculated from the sum of apoptotic cell pixels divided by the sum of all cell pixels for each field of view.

Data set [2] relates to SK-N-BE(2) cells. The description is as above. Here is the method:
as §2, §3, §4

Data set [3] has as its system SK-N-BE(2) cells. The experiment in a line: Live cell confocal microscopy of NBD-cholesterol and lysotracker. The class given is cell-based, human. Conditions: after 24 hours, only with NPC1 inhibitor U18666A and CBD 20 μM.
Description: One possible explanation for why CBD sensitizes cells to inhibitors of cholesterol trafficking and storage is that CBD increases the flux of cholesterol from the plasma membrane to the lysosome-ER transport pathway. When this flux is activated and hydroxy cholesterol is supplied in excess, the inability to efficiently store cholesterol may cause subcellular accumulation of cholesterol/hydroxycholesterol in organelles that normally maintain low cholesterol levels. To test this hypothesis, the inventor's repeated the live cell confocal microscopy experiments with SK-N-BE(2) cells stained with fluorescent cholesterol (NBD-cholesterol) and the lysosome dye lysotracker.
as §1

The subject of data set [4] is SK-N-BE(2) cells. Nature of the data set: Fluorometric total cellular cholesterol (Amplex Red Cholesterol Assay Kit). The class given is cell-based, human. The following applies: orthogonal experiment. The source says:
FIG. 11A-C. (A) Plots of 13C labelled (left) and total+labeled cholesterol (right) abundances measured in methanol extracts from vehicle/CBD treated cells. (B) A similar analysis for cholesterol precursors. (C) Fluorometric measurement of total cellular cholesterol from methanol extracts of SK-N-BE(2) cells using the Amplex Red Cholesterol Assay Kit.
These findings raise the question of whether CBD treatment leads to alterations in lipid and cholesterol metabolism (the latter pathway depicted in FIG. 3A). The present inventors used mass spectrometry-based lipidomics, a subset of metabolomics, to quantify the effect of CBD on the fluxes of key lipids and sterols. Vehicle and CBD exposed cells were fed ^13C labeled glucose for 24 hours and harvested using methanol extraction and mass spectrometry analysis. Cholesterol biosynthesis was analyzed by determining the level of incorporation of ^13C into biosynthetic intermediates. […] The effect of CBD on total cellular cholesterol was confirmed using a fluorogenic assay for cholesterol in an orthogonal experiment (FIG. 11B).

For the compound `C=C(C)[C@@H]1CCC(C)=C[C@H]1c1c(O)cc(CCCCC)cc1O` [CBD, cannabidiol], in the data set with SK-N-BE(2) cells [1], the “average abundance of lipid droplets” value was “increases” and the lipid droplet size result is “does not affect”. In addition, in the data set on HaCaT cells, the “sensitivity of CBD exposed cells to 25-hydroxy cholesterol induced apoptosis, relative to SK-N-BE(2)” value is recorded as “more dramatically observed”. For the same compound, the “effect on DHA induced apoptosis” value in the data set on SK-N-BE(2) cells [2] (DHA 75 μM with MBCD 300 μM or CBD 6.25 μM) is “completely cancel the apoptotic effects”. In the data set with SK-N-BE(2) cells [2] (increasing 25-hydroxy cholesterol, constant CBD), the “sensitivity of CBD exposed cells to 25-hydroxy cholesterol induced apoptosis” value is listed as “clear dose dependent sensitivity”. For the same compound, in the data set with SK-N-BE(2) cells [3], the “fluorescent cholesterol in lysosomes” value is on record as “accumulates in labeled lysosomes”. Moreover, in the data set with SK-N-BE(2) cells [4], the “effect on total cellular cholesterol, fluorogenic assay” value was “confirmed”.

Values taken from US20210244686A1, “Novel Systems And Methods For The Therapeutic Use of Cannabinoids or Cannabinoid Analogs to Increase The Lipid Order of Cholesterol Containing Cell Membranes” (The Regents of the University of Colorado a body corporate, priority 2018, published 2021).
